What was measured:
[1] = system: cultured cells; assay: MTT assay of radioprotection; format: cell-based; details: DIM 0.3 μM starting 48-hr before radiation to 5-10 min after irradiation
[2] = system: Hs578Bst cells; assay: Neutral comet assay, Hs578Bst cells; format: cell-based, human; details: DIM 0.3 μM 24-hr pre-treatment; 30-min and 2-hr post radiation (3-Gy)
Protocol: FIGS. 11A and 11B show subconfluent proliferating 184A1 (FIG. 11A) or Hs578Bst (FIG. 11B) cells pre-treated±DIM (0.3 μM×24 hr); exposed to radiation (3-Gy) on ice; and subjected to neutral comet assays at different times post-irradiation. Values of % tail DNA are means±ranges of two determinations. […] At 24-hr after irradiation, cells were analyzed by flow cytometry for apoptosis, by measuring membrane redistribution of phosphatidylserine. The percentage of early and late apoptotic cells for non-irradiated control cells were: vehicle treated, 1.25% and 1.34%, and DIM-treated, 0.54% and 1.02%, respectively.
Following the indicated treatment, neutral or alkaline comet assays were performed.
Since ATM is known to have a major role in the repair of radiation-induced double-strand breaks (DSBs) of DNA, it was tested whether DIM could stimulate the repair of DSBs. The neutral comet assay is an electrophoretic method to measure DNA damage that reflects DSBs. The percent of tail DNA after irradiation reflects the number of DSBs. […] A DNA strand-rejoining assay based on the ability of cell nuclei to rejoin a linearized plasmid (pEGFP-1) was also performed, detected by Southern blotting. This assay reflects the process of non-homologous end joining (NEHJ).

## c1ccc2c(Cc3c[nH]c4ccccc34)c[nH]c2c1 [DIM, 3,3′-diindolylmethane]
[1]
  radioprotection (MTT): Significant radioprotection
[2]
  % of comet tail DNA: reduced
